Patent US10385065B2, “Antibacterial compounds” (priority 2014, dated 2019)
Values after ≈ are worked out from the molar mass of the structure shown. Like-named read-outs stand apart in the source and are kept apart here.

Key:
Assay type in all cases: cell-based
[1] = tested on: human hepatic cell line (HepG2 ATCC HB-8065); test: Human cell viability assay (CellTiter-Glo), HepG2; conditions: read-out: IC50 values against HepG2
In short: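 HepG2 seeded at 20,000 cells/well, then after 24 h given two-fold serial dilutions (1-128 μg/mL, 1% DMSO) in DMEM with 0.001% FBS and 0.3% albumin. After 24 h at 37 °C, ATP luminescence (CellTiter-Glo) read; IC50 is the concentration halving viability.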

[2] = tested on: S. aureus NRS127 MRSA LZD resistant; test: MIC, S. aureus NRS127; conditions: Staphylococcus aureus; Table 2
[3] = tested on: S. aureus SACPX1-SP25 MSSA - FQ resistant; test: microbe, parasite or virus in culture; conditions: Staphylococcus aureus, ATCC 29213 / MSSA, read-out: MIC S. aureus SACPX1-SP25 MSSA - FQ resistant (isogenic mutant of ATCC 29213)
S. aureus NRS1 MRSA = test: MIC, S. aureus NRS1; conditions: Staphylococcus aureus; Table 2; read-out: MIC S. aureus NRS1 MRSA AMG & TET resistant
[4] = tested on: S. aureus NRS107 MUP resistant; test: MIC, S. aureus NRS107; conditions: Staphylococcus aureus, Table 2
[5] = tested on: Streptococcus pneumoniae ATCC BAA-255; test: MIC, S. pneumoniae ATCC BAA-255; conditions: ATCCBAA255, Table 2
[6] = tested on: Enterococcus faecium ATCC 19434; test: MIC, E. faecium ATCC 19434; conditions: ATCC19434, Table 2
[7] = tested on: S. epidermidis NRS101 MRSE; test: MIC, S. epidermidis NRS101; conditions: Staphylococcus epidermidis; Table 2; read-out: MIC S. epidermidis NRS101 MRSE AMG, ERY resistant
S. aureus NRS100 MRSA = test: MIC, S. aureus NRS100; conditions: Staphylococcus aureus; Table 2
[8] = tested on: S. aureus VRS1 MRSA VAN resistant; test: MIC, S. aureus VRS1; conditions: Staphylococcus aureus, Table 2
[9] = tested on: S. aureus (MRSA) ATCC 43300; test: MIC, S. aureus ATCC 43300; conditions: Staphylococcus aureus; Table 2; read-out: MIC S. aureus (MRSA) ATCC 43300 Heterogeneous MRSA strain
[10] = tested on: Staphylococcus aureus ATCC 29213; test: MIC, broth microdilution, S. aureus ATCC 29213
[11] = tested on: S. aureus NRS482 MRSA FQ resistant; test: MIC, S. aureus NRS482; conditions: Staphylococcus aureus; Table 2
S. aureus NRS70 MRSA = test: MIC, S. aureus NRS70; conditions: Staphylococcus aureus; Table 2
[12] = tested on: Haemophilus influenzae ATCC 49247; test: MIC, H. influenzae ATCC 49247; conditions: ATCC49247, Table 4
[13] = tested on: Neisseria meningitidis ATCC 13090; test: MIC, N. meningitidis ATCC 13090; conditions: ATCC13090, Table 4, 24 h incubation
[14] = tested on: Neisseria gonorrhoeae ATCC 49226; test: MIC, N. gonorrhoeae ATCC 49226; conditions: ATCC49226, Table 4, 24 h incubation
[15] = tested on: Legionella pneumophila ATCC 33152; test: microbe, parasite or virus in culture; conditions: ATCC33152, 48 h, read-out: MIC Legionella pneumophila ATCC 33152
[16] = tested on: Moraxella catarrhalis ATCC 25240; test: MIC, M. catarrhalis ATCC 25240; conditions: ATCC25240, Table 4
[17] = tested on: Escherichia coli ATCC 25922; test: MIC, broth microdilution, E. coli ATCC 25922; conditions: ATCC25922, Table 1, wild type strain
[18] = tested on: Mycobacterium smegmatis ATCC 19420; test: MIC, M. smegmatis ATCC 19420; conditions: Mycolicibacterium smegmatis, ATCC19420; Table 4, 72 h incubation
[19] = ATCC 29213 / MSSA, Table 2, read-out: MIC S. aureus (MSSA) ATCC 29213 CLSI control strain
[20] = HepG2, 24 h incubation, tested over 1-128 μg/mL
[21] = ATCC29213, Table 1, wild type strain, read-out: MIC S. aureus ATCC 29213

| Compound | MIC [2] | MIC (S. aureus NRS1 MRSA) | MIC [4] | MIC [5] | MIC [6] | MIC [7] | MIC (S. aureus NRS100 MRSA) | MIC [8] | MIC [9] | MIC [10, 19] | MIC [11] | MIC (S. aureus NRS70 MRSA) | MIC [12] | IC50 [1, 20] | MIC [3] | MIC [13] | MIC [14] | MIC [15] | MIC [16] | MIC [10, 21] | other results |
| --- | --- | --- | --- | --- | --- | --- | --- | --- | --- | --- | --- | --- | --- | --- | --- | --- | --- | --- | --- | --- | --- |
| CN[C@H](CC(C)C)C(=O)N[C@H]1C(=O)N[C@@H](CC(N)=O)C(=O)N[C@H]2C(=O)N[C@H]3C(=O)N[C@H](C(=O)N[C@H](C(=O)O)c4cc(O)cc(O)c4-c4cc3ccc4O)[C@H](O)c3ccc(c(Cl)c3)Oc3cc2cc(c3O[C@@H]2O[C@H](CO)[C@@H](O)[C@H](O)[C@H]2O[C@H]2C[C@](C)(N)[C@H](O)[C@H](C)O2)Oc2ccc(cc2Cl)[C@H]1O [Vancomycin, reference compound] | 1 to 10 µg/mL (≈ 0.69 to 6.9 µM) | 1 to 10 µg/mL (≈ 0.69 to 6.9 µM) | 1 to 10 µg/mL (≈ 0.69 to 6.9 µM) | < 1 µg/mL | < 1 µg/mL | 1 to 10 µg/mL (≈ 0.69 to 6.9 µM) | 1 to 10 µg/mL (≈ 0.69 to 6.9 µM) | 1 to 10 µg/mL (≈ 0.69 to 6.9 µM) | 1 to 10 µg/mL (≈ 0.69 to 6.9 µM) | < 1 µg/mL | 1 to 10 µg/mL (≈ 0.69 to 6.9 µM) | < 1 µg/mL | 10 to 100 µg/mL (≈ 6.9 to 69 µM) | – | – | – | – | – | – | – | IC50 ([1]; HepG2, 24 h): 10 to 100 µg/mL (≈ 6.9 to 69 µM); MIC ([3]; Table 2): < 1 µg/mL |
| C[C@H]1COc2c(N3CCN(C)CC3)c(F)cc3c(=O)c(C(=O)O)cn1c23 [Levofloxacin, reference compound] | > 100 µg/mL | 10 to 100 µg/mL (≈ 27.7 to 277 µM) | < 1 µg/mL | < 1 µg/mL | 1 to 10 µg/mL (≈ 2.77 to 27.7 µM) | < 1 µg/mL | < 1 µg/mL | 10 to 100 µg/mL (≈ 27.7 to 277 µM) | < 1 µg/mL | < 1 µg/mL | 1 to 10 µg/mL (≈ 2.77 to 27.7 µM) | < 1 µg/mL | < 1 µg/mL | > 100 µg/mL | 1 to 10 µg/mL (≈ 2.77 to 27.7 µM) | < 1 µg/mL | < 1 µg/mL | < 1 µg/mL | < 1 µg/mL | – | – |
| Cc1nc2c(=O)n3c4c(c(N5CCC(CN)C5)c(F)cc4c2o1)OC[C@@H]3C (stereo partly drawn) [Compound 88, (2S)-6-[3-(aminomethyl)pyrrolidin-1-yl]-7-fluoro-2,12-dimethyl-4,11-dioxa-1,13-diazatetracyclo[7.6.1.0^5,^16.0^10,^14]hexadeca-5(16),6,8,10(14),12-pentaen-15-one] | 1 to 10 µg/mL (≈ 2.69 to 26.9 µM) | 1 to 10 µg/mL (≈ 2.69 to 26.9 µM) | – | – | 10 to 100 µg/mL (≈ 26.9 to 269 µM) | – | – | 1 to 10 µg/mL (≈ 2.69 to 26.9 µM) | 1 to 10 µg/mL (≈ 2.69 to 26.9 µM) | < 1 µg/mL | 1 to 10 µg/mL (≈ 2.69 to 26.9 µM) | – | 1 to 10 µg/mL (≈ 2.69 to 26.9 µM) | 10 to 100 µg/mL (≈ 26.9 to 269 µM) | 1 to 10 µg/mL (≈ 2.69 to 26.9 µM) | 1 to 10 µg/mL (≈ 2.69 to 26.9 µM) | 1 to 10 µg/mL (≈ 2.69 to 26.9 µM) | 1 to 10 µg/mL (≈ 2.69 to 26.9 µM) | 1 to 10 µg/mL (≈ 2.69 to 26.9 µM) | < 1 µg/mL | MIC [17]: 1 to 10 µg/mL (≈ 2.69 to 26.9 µM) |
| Cc1c(-c2ccc3[nH]ncc3c2)ccc2c3ocnc3c(=O)n(C3CC3)c12 [Compound 39, 5-cyclopropyl-7-(1H-indazol-5-yl)-6-methyl-oxazolo[4,5-c]quinolin-4-one] | < 1 µg/mL | < 1 µg/mL | < 1 µg/mL | < 1 µg/mL | 10 to 100 µg/mL (≈ 28.1 to 281 µM) | < 1 µg/mL | < 1 µg/mL | < 1 µg/mL | < 1 µg/mL | < 1 µg/mL | < 1 µg/mL | < 1 µg/mL | < 1 µg/mL | 10 to 100 µg/mL (≈ 28.1 to 281 µM) | < 1 µg/mL | < 1 µg/mL | < 1 µg/mL | – | – | < 1 µg/mL | MIC [18]: 1 to 10 µg/mL (≈ 2.81 to 28.1 µM); MIC [17]: 1 to 10 µg/mL (≈ 2.81 to 28.1 µM) |
